# From patent publication US4939163A, “Anticonvulsant agents” (Eli Lilly and Company, priority 1989, dated 1990)
# System: tonic extensor seizures elicited by maximal electroshock
# Experiment: electroshock induced convulsion inhibition assay (E.S.)
# Assay type: in vivo, Cox standard strain albino male mice
# Conditions: mouse, oral dose (gavage), 0.1 second 50 milliampere corneal electroshock, inhibition of extensor tonic convulsions, at time of optimal response
# Protocol: In the electroshock induced convulsion inhibition assay (E.S.), the compound to be tested was suspended in acacia and administered by gavage to each of ten Cox standard strain albino male mice (18-24 g) at the dose level being investigated. […] The animals were examined and evaluated immediately after the electroshock for the occurrence of clonic, flexor tonic, or extensor tonic convulsions, or death and the ED50 was determined for each compound as the dose which inhibited the occurrence of extensor tonic convulsions in one half of the animals immediately after the electroshock. For comparison, 18 milliamperes was usually sufficient to produce extensor tonic convulsions in about half of the control animals; at 50 milliamperes, almost all control animals (receiving vehicle only) died. The test results summarized in Table I are reported as the ED50 values at the time interval found to provide an optimal response after dosing.
row,SMILES,ED50 [mg/kg]
1,"Cc1cccc(C)c1NC(=O)c1ccc(CN)cc1.Cl [Example 11, 4-(Aminomethyl)-N-(2,6-dimethylphenyl)benzamide hydrochloride]",38
2,"COc1ccc(C(=O)Nc2c(C)cccc2C)cc1 [Example 4, N-(2,6-dimethylphenyl)-4-methoxybenzamide]",15
3,"CCCN(C)c1ccc(C(=O)Nc2c(C)cccc2C)cc1 [Example 9, N-(2,6-dimethylphenyl)-4-(methylpropylamino)benzamide]",4.6
4,"Cc1cccc(C)c1NC(=O)c1ccc(O)cc1 [Example 15, N-(2,6-dimethylphenyl)-4-hydroxybenzamide]",11.2
5,"Cc1cccc(C)c1NC(=O)c1ccc(N(C)C)cc1 [Example 6, 4-(Dimethylamino)-N-(2,6-dimethylphenyl)benzamide]",3.65
6,"Cc1cccc(C)c1NC(=O)c1ccc(-n2ccnc2)cc1.Cl [Example 10, N-(2,6-dimethylphenyl)-4-(1H-imidazol-1-yl)benzamide hydrochloride]",~50
7,"CSc1ccc(C(=O)Nc2c(C)cccc2C)cc1 [Example 5, N-(2 6-dimethylphenyl)-4-(methylthio)benzamide]",~75
8,"Cc1ccc(C(=O)Nc2c(C)cccc2C)cc1 [Example 3, N-(2,6-dimethylphenyl)-4-methylbenzamide]",~250
9,"Cc1cccc(C)c1NC(=O)c1ccc(S(C)(=O)=O)cc1 [Example 14, N-(2,6-dimethylphenyl)-4-(methylsulfonyl)benzamide]",14
10,"Cc1cccc(C)c1NC(=O)c1ccc([S+](C)[O-])cc1 (stereo not shown) [Example 13, N-(2,6-dimethylphenyl)-4-(methylsulfinyl)benzamide]",13
11,"CNc1ccc(C(=O)Nc2c(C)cccc2C)cc1 [Example 8, N-(2,6-dimethylphenyl)-4-(methylamino)benzamide]",2
12,"CCNc1ccc(C(=O)Nc2c(C)cccc2C)cc1 [Example 7, N-(2,6-dimethylphenyl)-4-(ethylamino)benzamide]",2.45
13,"Cc1cccc(C)c1NC(=O)c1ccc(C(N)=O)cc1 [Example 12, N-(2,6-Dimethylphenyl)-1,4-benzenedicarboxamide]",~75
14,"Cc1cccc(C)c1NC(=O)c1ccc(C(F)(F)F)cc1 [Example 1, N-(2,6-dimethylphenyl)-4-(trifluoromethyl)benzamide]",~225
15,"Cc1cccc(C)c1NC(=O)c1ccc(C#N)cc1 [Example 2, 4-Cyano-N-(2,6-dimethylphenyl)benzamide]",13.2

# System: seizures in man
# Experiment: not given
# Conditions: Gilman, Goodman, and Gilman, 6th Ed., p. 455; cited from earlier work
row,SMILES,plasma level at which seizures are controlled [µg/mL]
1,O=C1NC(=O)C(c2ccccc2)(c2ccccc2)N1 [phenytoin],≥ 10
